Measurements taken from patent US11957759B1, “Rapidly accelerated fibrosarcoma (RAF) degrading compounds and associated methods of use” (Arvinas Operations, Inc., priority 2022, dated 2024).

Assays:
[1] = target: T1, B-RAF V600E (Homo sapiens, UniProt P15056, V600E); assay: Target protein degradation, assay C: T-Rex 293 cells, HA-BRAF_V600E, 384 well format; assay type: cell-based; conditions: T-Rex 293 HA-BRAF_V600E cells, 24 hours, Examples 83-269; for DC50: Assay C; for Dmax: T-REx-293, Assay C
T1 construct: expressed in transfected cells; host or cells: T-Rex 293 cells (Invitrogen #R71007)
Procedure, shortened: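 After 24 h exposure to an 11-point 1:3 series (300 nM–5 pM, 0.5% DMSO), fixed T-Rex 293 cells carrying HA-BRAF V600E (induced with 1 ng/mL doxycycline) were stained anti-HA and imaged. DC50 and Dmax were derived from BRAF intensity relative to control, and cytotoxicity from nuclear counts.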

[2] = target: T2, B-RAF G466V (Homo sapiens, UniProt P15056, G466V); assay: Target protein degradation, assay D: T-Rex 293 cells, HA-BRAF_G466V, 384 well format; assay type: cell-based; conditions: T-Rex 293 HA-BRAF_G466V cells, 24 hours, Examples 83-269; for DC50: Assay D; for Dmax: T-REx-293, Assay D
T2 construct: expressed in transfected cells; host or cells: T-Rex 293 cells (Invitrogen #R71007)
Procedure, shortened: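 Degradation measured by high-content imaging of anti-HA immunofluorescence in fixed T-Rex 293 cells carrying inducible HA-BRAF G466V (1 ng/mL doxycycline), after 24 h PROTAC exposure at 37 °C over 300 nM–5 pM (1:3, 11 points, 0.5% DMSO). Outputs DC50 and Dmax as % of control; nuclei counts against DMSO wells gauge toxicity.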

T1 sequence (P15056 whole entry V600E): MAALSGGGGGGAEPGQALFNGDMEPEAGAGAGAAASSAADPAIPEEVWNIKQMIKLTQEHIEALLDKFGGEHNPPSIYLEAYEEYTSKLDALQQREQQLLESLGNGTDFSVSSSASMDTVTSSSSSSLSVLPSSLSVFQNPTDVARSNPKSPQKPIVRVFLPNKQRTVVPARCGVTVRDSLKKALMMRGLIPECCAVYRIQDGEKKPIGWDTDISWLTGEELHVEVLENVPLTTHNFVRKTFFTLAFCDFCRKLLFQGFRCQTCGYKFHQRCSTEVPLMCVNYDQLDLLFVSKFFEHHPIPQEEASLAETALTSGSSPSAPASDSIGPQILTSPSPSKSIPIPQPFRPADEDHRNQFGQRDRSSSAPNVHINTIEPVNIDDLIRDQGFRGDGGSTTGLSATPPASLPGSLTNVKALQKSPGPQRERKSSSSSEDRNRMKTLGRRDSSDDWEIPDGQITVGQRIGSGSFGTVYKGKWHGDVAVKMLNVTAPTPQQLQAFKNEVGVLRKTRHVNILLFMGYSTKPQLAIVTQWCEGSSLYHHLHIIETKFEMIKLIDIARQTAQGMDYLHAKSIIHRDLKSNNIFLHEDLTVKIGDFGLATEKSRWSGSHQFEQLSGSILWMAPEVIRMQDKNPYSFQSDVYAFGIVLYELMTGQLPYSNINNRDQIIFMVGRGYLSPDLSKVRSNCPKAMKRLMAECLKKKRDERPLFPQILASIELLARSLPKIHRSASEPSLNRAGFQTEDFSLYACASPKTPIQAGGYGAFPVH
T2 sequence (P15056 whole entry G466V): as the sequence (P15056 whole entry V600E) above, with G466V, E600V counted along it

| SMILES | DC50 [1] | Dmax [1] | DC50 [2] | Dmax [2] |
| --- | --- | --- | --- | --- |
| N#Cc1c(NS(=O)(=O)N2CC[C@@H](F)C2)ccc(F)c1Oc1ccc2ncn(-c3ccc(N4CCC(COCC5CCN(c6ccc7c(c6)C(=O)N(C6CCC(=O)NC6=O)C7=O)CC5)CC4)nc3)c(=O)c2c1 (stereo partly drawn) [Example 144, (3R)-N-(2-cyano-3-{[3-(6-{4-[{{1-[2-(2,6-dioxopiperidin-3-yl)-1,3-dioxo-2,3-dihydro-1H-isoindol-5-yl]piperidin-4-yl}methoxy)methyl]piperidin-1-yl}pyridin-3-yl)-4-oxo-3,4-dihydroquinazolin-6-yl]oxy}-4-fluorophenyl)-3-fluoropyrrolidine-1-sulfonamide] | 5 to 50 nM | ≤ 35% | 10 to 30 nM | ≤ 35% |
| N#Cc1c(NS(=O)(=O)N2CC[C@@H](F)C2)ccc(F)c1Oc1ccc2ncn(-c3cnc(N4CCC(C5CN(c6ccc7c(c6)C(=O)N(C6CCC(=O)NC6=O)C7=O)C5)CC4)nc3)c(=O)c2c1 (some centres unmarked) [Example 155] | > 500 nM | – | 1 to 10 nM | ≤ 35% |
| N#Cc1c(NS(=O)(=O)N2CC[C@@H](F)C2)ccc(F)c1Oc1ccc2ncn(-c3ccc(N4CCC(CN5CC6(CCC(c7ccc8c(c7)CN([C@@H]7CCC(=O)NC7=O)C8=O)CC6)C5)CC4)cc3)c(=O)c2c1 [Example 220, (3R)-N-(2-cyano-3-{[3-(4-{4-[(7-{2-[(3R)-2,6-dioxopiperidin-3-yl]-1-oxo-2,3-dihydro-1H-isoindol-5-yl}-2-azaspiro[3.5]nonan-2-yl)methyl]piperidin-1-yl}phenyl)-4-oxo-3,4-dihydroquinazolin-6-yl]oxy}-4-fluorophenyl)-3-fluoropyrrolidine-1-sulfonamide] | 50 to 500 nM | 35 to 70% | 10 to 30 nM | 35 to 70% |
| Cn1c(=O)n(C2CCC(=O)NC2=O)c2cccc(N3CC4(CC(CN5CCN(c6ccc(-n7cnc8ccc(Oc9c(F)ccc(NS(=O)(=O)N%10CC[C@@H](F)C%10)c9C#N)cc8c7=O)cc6)CC5)C4)C3)c21 (stereo partly drawn) [Example 246, (3R)-N-{2-cyano-3-[(3-{4-[4-({2-[1-(2,6-dioxopiperidin-3-yl)-3-methyl-2-oxo-2,3-dihydro-1H-1,3-benzodiazol-4-yl]-2-azaspiro[3.3]heptan-6-yl}methyl)piperazin-1-yl]phenyl}-4-oxo-3,4-dihydroquinazolin-6-yl)oxy]-4-fluorophenyl}-3-fluoropyrrolidine-1-sulfonamide] | 50 to 500 nM | 35 to 70% | 1 to 10 nM | 35 to 70% |
| N#Cc1c(NS(=O)(=O)N2CC[C@@H](F)C2)ccc(F)c1Oc1ccc2ncn(-c3cccc(N4CCN(CC5CCN(c6ccc7c(c6)CN([C@H]6CCC(=O)NC6=O)C7=O)CC5)CC4)c3)c(=O)c2c1 [Example 239, (3R)-N-(2-cyano-3-{[3-(3-{4-[(1-{2-[(3S)-2,6-dioxopiperidin-3-yl]-1-oxo-2,3-dihydro-1H-isoindol-5-yl}piperidin-4-yl)methyl]piperazin-1-yl}phenyl)-4-oxo-3,4-dihydroquinazolin-6-yl]oxy}-4-fluorophenyl)-3-fluoropyrrolidine-1-sulfonamide] | 50 to 500 nM | ≥ 70% | 1 to 10 nM | ≥ 70% |
| N#Cc1c(NS(=O)(=O)N2CCC(F)C2)ccc(F)c1Oc1ccc2ncn(-c3ccc(N4CCN(CC5CN(c6ccc7c(c6)CN(C6CCC(=O)NC6=O)C7=O)C5)CC4)cc3)c(=O)c2c1 (centres unmarked) [Example 194, N-{2-cyano-3-[(3-{4-[4-({1-[2-(2,6-dioxopiperidin-3-yl)-1-oxo-2,3-dihydro-1H-isoindol-5-yl]azetidin-3-yl}methyl)piperazin-1-yl]phenyl}-4-oxo-3,4-dihydroquinazolin-6-yl)oxy]-4-fluorophenyl}-3-fluoropyrrolidine-1-sulfonamide] | 50 to 500 nM | ≤ 35% | 1 to 10 nM | 35 to 70% |
| Cn1c(=O)n(C2CCC(=O)NC2=O)c2cccc(N3CCC(CN4CCN(c5ccc(-n6cnc7ccc(Oc8c(F)ccc(NS(=O)(=O)N9CC[C@@H](F)C9)c8C#N)cc7c6=O)cc5)CC4)CC3)c21 (stereo partly drawn) [Example 98, (3R)-N-{2-cyano-3-[(3-{4-[4-({1-[1-(2,6-dioxopiperidin-3-yl)-3-methyl-2-oxo-2,3-dihydro-1H-1,3-benzodiazol-4-yl]piperidin-4-yl}methyl)piperazin-1-yl]phenyl}-4-oxo-3,4-dihydroquinazolin-6-yl)oxy]-4-fluorophenyl}-3-fluoropyrrolidine-1-sulfonamide] | 50 to 500 nM | 35 to 70% | 1 to 10 nM | 35 to 70% |
| N#Cc1c(NS(=O)(=O)N2CC[C@@H](F)C2)ccc(F)c1Oc1ccc2ncn(-c3ccc(N4CCC5(CC4)CC(OC4CCN(c6ccc7c(c6)CN([C@@H]6CCC(=O)NC6=O)C7=O)CC4)C5)cc3)c(=O)c2c1 [Example 252, (3R)-N-(2-cyano-3-{[3-(4-{2-[(1-{2-[(3R)-2,6-dioxopiperidin-3-yl]-1-oxo-2,3-dihydro-1H-isoindol-5-yl}piperidin-4-yl)oxy]-7-azaspiro[3.5]nonan-7-yl}phenyl)-4-oxo-3,4-dihydroquinazolin-6-yl]oxy}-4-fluorophenyl)-3-fluoropyrrolidine-1-sulfonamide] | 5 to 50 nM | ≤ 35% | 1 to 10 nM | 35 to 70% |
| N#Cc1c(NS(=O)(=O)N2CC[C@@H](F)C2)ccc(F)c1Oc1ccc2ncn(-c3cnc(N4CC5(CN(CC6CCN(c7ccc8c(c7)C(=O)N(C7CCC(=O)NC7=O)C8=O)CC6)C5)C4)nc3)c(=O)c2c1 (stereo partly drawn) [Example 134, (3R)-N-{2-cyano-3-[(3-(2-[6-({1-[2-(2,6-dioxopiperidin-3-yl)-1,3-dioxo-2,3-dihydro-1H-isoindol-5-yl]piperidin-4-yl}methyl)-2,6-diazaspiro[3.3]heptan-2-yl]pyrimidin-5-yl}-4-oxo-3,4-dihydroquinazolin-6-yl)oxy]-4-fluorophenyl}-3-fluoropyrrolidine-1-sulfonamide] | 50 to 500 nM | 35 to 70% | 1 to 10 nM | 35 to 70% |
| Cc1cc(N2CC(CN3CCN(c4ccc(-n5cnc6ccc(Oc7c(F)ccc(NS(=O)(=O)N8CC[C@@H](F)C8)c7C#N)cc6c5=O)cc4)CC3)C2)cc2c1C(=O)N([C@H]1CCC(=O)NC1=O)C2 [Example 234, (3R)-N-(2-cyano-3-{[3-(4-{4-[(1-{2-[(3S)-2,6-dioxopiperidin-3-yl]-7-methyl-1-oxo-2,3-dihydro-1H-isoindol-5-yl}azetidin-3-yl)methyl]piperazin-1-yl}phenyl)-4-oxo-3,4-dihydroquinazolin-6-yl]oxy}-4-fluorophenyl)-3-fluoropyrrolidine-1-sulfonamide] | 50 to 500 nM | 35 to 70% | 1 to 10 nM | 35 to 70% |
| N#Cc1c(NS(=O)(=O)N2CC[C@@H](F)C2)ccc(F)c1Oc1ccc2ncn(-c3ccc(N4CCC(CN5CC6(C5)CN(c5cccc7c5C(=O)N(C5CCC(=O)NC5=O)C7=O)C6)CC4)nc3)c(=O)c2c1 (stereo partly drawn) [Example 173, (3R)-N-{2-cyano-3-[(3-{6-[4-({6-[2-(2,6-dioxopiperidin-3-yl)-1,3-dioxo-2,3-dihydro-1H-isoindol-4-yl]-2,6-diazaspiro[3.3]heptan-2-yl}methyl)piperidin-1-yl]pyridin-3-yl}-4-oxo-3,4-dihydroquinazolin-6-yl)oxy]-4-fluorophenyl}-3-fluoropyrrolidine-1-sulfonamide] | 50 to 500 nM | 35 to 70% | > 30 nM | – |
| N#Cc1c(NS(=O)(=O)N2CC[C@@H](F)C2)ccc(F)c1Oc1ccc2ncn(-c3cnc(N4CCC(CN5CC6(C5)CN(c5cccc7c5C(=O)N(C5CCC(=O)NC5=O)C7=O)C6)CC4)nc3)c(=O)c2c1 (stereo partly drawn) [Example 153, (3R)-N-{2-cyano-3-[(3-{2-[4-({6-[2-(2,6-dioxopiperidin-3-yl)-1,3-dioxo-2,3-dihydro-1H-isoindol-4-yl]-2,6-diazaspiro[3.3]heptan-2-yl}methyl)piperidin-1-yl]pyrimidin-5-yl}-4-oxo-3,4-dihydroquinazolin-6-yl)oxy]-4-fluorophenyl}-3-fluoropyrrolidine-1-sulfonamide] | 50 to 500 nM | 35 to 70% | > 30 nM | – |
| CC(C)(C1CCN(c2ccc(-n3cnc4ccc(Oc5c(F)ccc(NS(=O)(=O)N6CC[C@@H](F)C6)c5C#N)cc4c3=O)cc2)CC1)N1CCN(c2ccc3c(c2)CN([C@H]2CCC(=O)NC2=O)C3=O)CC1 [Example 269, (3R)-N-(2-cyano-3-{[3-(4-{4-[2-(4-{2-[(3S)-2,6-dioxopiperidin-3-yl]-1-oxo-2,3-dihydro-1H-isoindol-5-yl}piperazin-1-yl)propan-2-yl]piperidin-1-yl}phenyl)-4-oxo-3,4-dihydroquinazolin-6-yl]oxy}-4-fluorophenyl)-3-fluoropyrrolidine-1-sulfonamide] | 50 to 500 nM | 35 to 70% | 10 to 30 nM | ≥ 70% |
| N#Cc1c(NS(=O)(=O)N2CC[C@@H](F)C2)ccc(F)c1Oc1ccc2ncn(-c3cnc(N4CCC(CN5CCC6(CC5)CCN(c5ccc7c(c5)C(=O)N(C5CCC(=O)NC5=O)C7=O)CC6)CC4)nc3)c(=O)c2c1 (stereo partly drawn) [Example 129, (3R)-N-{2-cyano-3-[(3-{2-[4-({9-[2-(2,6-dioxopiperidin-3-yl)-1,3-dioxo-2,3-dihydro-1H-isoindol-5-yl]-3,9-diazaspiro[5.5]undecan-3-yl}methyl)piperidin-1-yl]pyrimidin-5-yl}-4-oxo-3,4-dihydroquinazolin-6-yl)oxy]-4-fluorophenyl}-3-fluoropyrrolidine-1-sulfonamide] | 50 to 500 nM | 35 to 70% | 1 to 10 nM | 35 to 70% |
